Columns and labels:
E. coli = assay: Growth curves and morphology of E. coli at 35° C. or 43° C.; type: cell-based
Description: FIG. 3. PES and E. coli. (A) Identification of DnaK as Biotin-PES (B-PES) interacting protein in bacteria by liquid chromatography-tandem mass spectrometry, as described herein below. (B) The amino acid sequence of DnaK (SEQ ID NO: 7); the residues detected by mass spectrometry are shown in bold and underlined. (C) Growth curves of E. coli treated with different concentrations of PES either at 35° C. or 43° C. […] (D) Bacterial morphology (phase contrast microscopy) following treatment of the cells with PES at the indicated temperatures. Note evidence of filamentation and aggregation at higher concentrations of PES, especially at 43° C.

NF-κB = assay: NF-κB-dependent luciferase reporter in H1299 cells; type: cell-based, human
Description: FIG. 4. PES Interferes with HSP70 Actions. […] (B) IP-WB analyses of WCE from PES-treated U2OS osteosarcoma cells reveal a lower bundance of HSP70 complexes containing BAG-1M or APAF1. […] Note evidence of caspase cleavage in cisplatin-treated cells, but not in the presence of PES. […] (D) (left) H1299 cells were transfected with a NF-κB-dependent luciferase reporter. 24 h later, cells were either pretreated with DMSO or the indicated amount of PES for 1 h, followed by the addition of 20 ng/ml of TNFα for 5 h, as specified. Each graphical representation indicates the mean±SD of at least three independent cultures relative to control (DMSO-treated) cells. (right) H1299 cells were treated with 20 μM PES for 5.7 h, followed by treatment with 10 ng/ml TNFα for 20 min. WCE were immunoblotted for the proteins indicated.

cathepsin L = assay: Western blot of cathepsin L processing; type: cell-based, human; settings: 20 μM, 24 h
EGFR, HER2/ErbB2, AKT = assay: Western blot of HSP70/HSP90 client proteins in detergent-soluble and detergent-insoluble fractions; type: cell-based, human
Description: FIG. 17. PES impairs the proteasome system. (A) Cell-based 20S proteasome activity assay of H1299 or A875 human tumor cells treated with DMSO, 20 μM PES, 100 nM Velcade (proteasome inhibitor), 1 μM 17-AAG (HSP90 inhibitor), 5 μM CQ (lysosome inhibitor), or 20S proteasome inhibitor epigallocatechin gallate (EGCG). Each graphical representation indicates the mean±SD of at least three independent cultures relative to control (DMSO-treated) cells. (B) Cell extracts from SKBR3 human breast carcinoma cells, treated either with 20 μM PES or 1 μM 17-AAG for 24 h, were immunoprecipitated (IP) using anti-HSP70 or anti-HSP90 antibody. […] MTT assays of MCF7 human breast carcinoma cells pretreated with DMSO, or 5 μM PES for 1 h, followed by the addition of indicated amount of 17-AAG for 47 h. The results represent the mean±SD of at least three independent analysis of cultures relative to control (DMSO-treated) cells. (D and E) H1299 cells (D) or SKBR3 cells (E) were treated with DMSO, 20 μM PES, 17-AAG, or 17-AAG plus bortezomib (Velcade) as indicated; harvested in 1% NP-40 containing lysis buffer; fractionated into detergent-soluble and detergent-insoluble preparations; and assayed by western blot.
FIG. 18. Accumulation of HSP90 client proteins in the protein detergent-insoluble fraction following PES. (A) SKOV3 cells were treated with DMSO, 10 μM PES, or 20 μM PES for 24 h. Note the marked accumulation of EGFR, HER2/ErbB2, and AKT in the detergent-insoluble fraction following 20 μM PES treatment. (B and C) SKOV3 (B) or SKBR3 (C) cells were treated with DMSO, 20 μM PES, or 1 μM 17-AAG, as indicated, for 24 h. Cells were harvested in 1% NP-40 containing lysis buffer, fractionated into detergent-soluble and detergent-insoluble preparations, and assayed by western blot for the proteins indicated.
The HSP70 and HSC70 proteins bind to exposed hydrophobic regions of nascent-, translocating-, misfolded- or partially unfolded-proteins. These ATP-dependent molecular chaperones act in multi-protein complexes in conjunction with one or more regulatory co-chaperones to carry out multiple cellular functions. […] This is illustrated for H1299 cells treated with 10 or 20 μM PES for 24 h. […] This correlates with a reduced abundance of complexes containing HSP70, or HSC70, together with client proteins or co-chaperones (FIGS. 19A and 19B). […] However, since HSP70/HSC70 act as critical co-chaperones for HSP90, for example in client protein recruitment, PES-mediated alteration in the function of the 70-kDa molecular chaperones could be reflected in an altered behavior or expression of many client proteins. To test this idea, we examined the expression of a few well-established HSP90 client proteins, including the transmembrane tyrosine kinase receptors EGFR and HER2/ERBB2, and the downstream signaling factor AKT. These proteins are overexpressed, or aberrantly expressed, in a variety of human tumors, and have been implicated in cancer etiology and pathology. As a control for these studies, we compared the effects of PES to that of the well-established HSP90 inhibitor, 17-allylamino-17-demethoxygeldanamycin (17-AAG). 17-AAG interacts with the N-terminal region of HSP90 and inhibits its ATPase activity; this disrupts interactions of HSP90 with client proteins and leads to client-protein degradation via the ubiquitin-proteasome pathway (Whitesell, et al. 2005; Neckers, et al. 2007). To examine the expression of some HSP70/HSP90 clients, we used western blot analysis of detergent-soluble (clarified) whole cell extracts.

In the case of NS(=O)(=O)C#Cc1ccccc1 [PES, 2-Phenylethynesulfonamide], the “response of the bacteria to elevated temperatures” value (E. coli) is reported as “slow growth, filamentation, and reduced viability”, the “cell proliferation of E. coli” value (E. coli; increasing concentrations, 35° C. or 43° C.) is reported as “inhibited in a dose-dependent fashion” and the “unstimulated NF-κB activity” value (NF-κB) is reported as “inhibited unstimulated NF-κB activity in a dose-dependent manner”. The “NF-κB activation stimulated by TNFα” value (NF-κB; TNFα) was “inhibited NF-κB activation”, the “processing of cathepsin L” value (cathepsin L) was “accumulation of the precursor pro-cathepsin L and a markedly reduced abundance of the smaller, mature form of the enzyme” and the “EGFR, HER2/ErbB2 and AKT in the detergent-insoluble fraction” value (EGFR, HER2/ErbB2, AKT; 20 μM, 24 h) was “increased abundance of EGFR, HER2/ErbB2, and AKT in the detergent-insoluble fraction”. For the same compound, the “expression of integrin β1 and CHIP” value (EGFR, HER2/ErbB2, AKT; H1299 cells, 20 μM, 24 h) was “lower expression levels”, the “overall cellular abundance of EGFR, HER2/ErbB2 and AKT” value (EGFR, HER2/ErbB2, AKT; SKBR3 cells, detergent-soluble extracts, 24 h) was “reduction in the overall cellular abundance” and the “other cellular proteins in the detergent-insoluble fraction” value (EGFR, HER2/ErbB2, AKT; SKBR3 or SKOV3 cells) was “many of the proteins examined accumulate in the detergent-insoluble fraction”.

— patent US9296687B2, “Modulators of HSP70/DnaK function and methods of use thereof” (The Trustees of the University of Pennsylvania, priority 2008, dated 2016)
